Patent US20250180567A1, “METHOD FOR MEASURING GL[…] ANTIGEN PROTEIN OF HBV” (RCMG Inc., priority 2021, published 2025)

Experiments:
[1] = system: glycosylated recombinant HBs antigen protein; test: sandwich ELISA of immobilized HBs antibody (HBsAgGi) and biotinylated lectins; assay type: binding, hepatitis B virus; details: FIG. 1; for detection of N-glycosylated S-HBs as a specific positive signal (ELISA absorbance): lectin-biotin 1 μg/mL, absorbance at 450 nm
Experimental: A purified antibody against HBs antigen protein (HBsAgGi) was immobilized on a plate, and a sandwich ELISA system was constructed to examine the optimal lectin to be used for detecting the capturedHBs antigen.
1) HBsAgGi (5 μg/mL) diluted with BSA (5 μg/mL)/PBS was added to a Nunc Immobilizer Amino Plate at a volume of 0.1 mL per well, and the plate was shaken at room temperature for 4 hours to immobilize the antibody. After washing twice with PBS-T, 0.3 mL of TBS was added per well and the plate was allowed to stand overnight at 4° C. for blocking. 2) After washing with PBS-T, glycosylated recombinant HBs antigen protein was diluted to 400 ng/ml with Sample dilution buffer (3% BSA/TBS-T), 0.1 mL thereof was added per well, and the plate was shaken at room temperature for 2.5 hours to be captured the antigen on the antibody solid-phased plate. In order to confirm the effect of the serum, recombinant HBs antigen to which 5% Normal human serum (NHS) was added was also treated in the same manner. 3) After washing the wells four times with PBS-T, the wells were reacted with the following lectins diluted with PBS-T at room temperature for 2 hours by shaking.
Jacalin-biotin (1 μg/mL), MAL II-biotin (1 μg/mL), RCA120-biotin (1 μg/mL), SNA-biotin (1 μg/mL), SSA-biotin (1 μg/mL), WGA-biotin (1 μg/mL) 4) After washing four times with PBS-T, the wells were reacted with Peroxidase-conjugated Streptavidin (1/20,000 dilution) or SSA-HRP (2 μg/mL) diluted with PBS-T at room temperature for 1 hour by shaking.
5) After washing the wells four times with PBS-T, 0.1 mL of 1Step Ultra TMB-ELISA was added per well and allowed to react for 5 min, then 50 μL of 1 mol/L sulfuric acid was added to stop the reaction. After the reaction was stopped, the absorbance at 450 nm was immediately measured by a plate reader.

glycosylated S-HBs = test: lectin-antibody combination ELISA using sera from chronic hepatitis B patients; assay type: binding, hepatitis B virus; details: actual sera from chronic hepatitis B patients; lectin combined with S-HBs antibody
Experimental: This finding means that the glycosylated chains attached to S-HBs bind to WGA, which is completely unexpected.
Sera from untreated (no treatment history with nucleic acid analogs) chronic hepatitis B patients (HBs antigen positivity persisting for 6 months or more) (n=4) were used before (0) weeks) and 48 weeks after nucleic acid analog treatment. 1) HBsAg antibody (Hyb-824, 5 μg/mL) diluted with BSA (5 μg/mL)/PBS was added to a Nunc Immobilizer Amino Plate in an amount of 0.1 mL per well, and the plate was shaken at room temperature for 2 hours to immobilize the antibody. After washing twice with PBS-T, 0.3 mL of TBS was added per well and the wells were allowed to stand at 4° C. overnight for blocking. 2) After washing the wells with PBS-T, patient samples (before treatment and 48 weeks after treatment) were diluted 1/20 and 1/100 with Sample dilution buffer (3% BSA/TBS-T), and 0.1 mL was added per well, and the plate was shaken at room temperature for 1.5 hours to capture the antigen onto the antibody-immobilized plate. […] After the reaction was stopped, the absorbance at 450 nm was immediately measured by a plate reader.

| Substance | detection of N-glycosylated S-HBs as a specific positive signal (ELISA absorbance) [1] | specificity of detection of glycosylated S-HBs in patient sera (glycosylated S-HBs) | effect of NHS added to the sample on lectin detection ([1]; 5% Normal human serum (NHS) added to recombinant HBs antigen) | reaction of the lectin with the solid-phased antibody ([1]; antibody HBsAgGi immobilized on plate) |
| --- | --- | --- | --- | --- |
| Salvia sclarea agglutinin [SSA lectin] | could not detect | unexpectedly low | – | – |
| wheat germ agglutinin [WGA lectin] | very clear detection | could specifically detect | not affected | did not react |
